Experimental data reported in ChEMBL document CHEMBL1201862, “PubChem BioAssay data set” (2004).
Calls of active or inactive are those of the source.

How the values were obtained:
[1] = target: T1, Short transient receptor potential channel 4 (Mus musculus, UniProt Q9QUQ5); assay: block of DAMGO-driven TRPC4 calcium entry – cell-based, HEK293 TRPC4/mu-opioid, Fluo-4 calcium, dose response (AID 434942); type: functional;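 note: potency of inhibitors blocking the TRPC4 calcium response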
T1 sequence (Q9QUQ5 whole entry): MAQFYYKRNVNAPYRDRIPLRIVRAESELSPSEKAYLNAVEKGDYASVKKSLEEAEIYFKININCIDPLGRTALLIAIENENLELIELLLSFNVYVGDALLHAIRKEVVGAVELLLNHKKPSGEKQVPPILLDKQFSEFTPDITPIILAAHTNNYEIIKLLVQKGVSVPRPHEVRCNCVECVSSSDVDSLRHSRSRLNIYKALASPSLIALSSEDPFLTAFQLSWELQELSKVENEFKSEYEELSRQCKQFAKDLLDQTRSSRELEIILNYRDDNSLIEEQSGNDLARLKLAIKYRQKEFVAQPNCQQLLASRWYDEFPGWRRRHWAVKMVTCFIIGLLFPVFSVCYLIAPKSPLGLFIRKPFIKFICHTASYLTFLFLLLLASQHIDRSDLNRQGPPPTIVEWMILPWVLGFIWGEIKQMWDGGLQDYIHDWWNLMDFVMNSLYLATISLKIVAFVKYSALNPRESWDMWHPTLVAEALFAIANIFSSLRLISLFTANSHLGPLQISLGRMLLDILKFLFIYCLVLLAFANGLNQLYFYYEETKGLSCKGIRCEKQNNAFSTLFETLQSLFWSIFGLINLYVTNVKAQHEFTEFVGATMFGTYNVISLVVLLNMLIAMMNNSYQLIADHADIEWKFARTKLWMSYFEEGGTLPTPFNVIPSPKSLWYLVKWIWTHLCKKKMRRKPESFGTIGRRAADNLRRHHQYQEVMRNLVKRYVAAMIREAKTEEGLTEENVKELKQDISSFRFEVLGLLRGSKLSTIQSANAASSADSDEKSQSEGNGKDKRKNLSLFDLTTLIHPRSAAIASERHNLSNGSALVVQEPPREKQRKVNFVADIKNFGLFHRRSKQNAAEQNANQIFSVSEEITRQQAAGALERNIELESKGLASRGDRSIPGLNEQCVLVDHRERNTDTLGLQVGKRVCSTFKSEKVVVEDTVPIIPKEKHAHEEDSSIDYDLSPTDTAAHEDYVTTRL

[2] = target: FAD-linked sulfhydryl oxidase ALR (Homo sapiens, UniProt P55789); assay: ALR-catalysed DTT oxidation blockers – biochemical, H2O2 detection, luminescence, cherry-pick, dose response (AID 493248)
[3] = target: T2, Polyadenylate-binding protein 1 (Homo sapiens, UniProt P11940); assay: MLLE binding blockers, Cy5 peptide tracer – biochemical, fluorescence polarization, Cy5-PAM2 peptide, secondary, miRNA deadenylation inhibitor project, dose response (AID 602260); type: functional; conditions: read-out: IC50_Mean
[4] = target: T2, Polyadenylate-binding protein 1; assay: MLLE domain peptide-binding blockers, IC50 – biochemical, fluorescence polarization, FITC-PAM2 peptide, dose response (AID 602259); type: functional; conditions: read-out: IC50_Mean
[5] = target: T3, Zinc finger protein mex-5 (Caenorhabditis elegans, UniProt Q9XUB2); assay: potency of MEX-5 RNA-binding blockers – biochemical, C. elegans, fluorescence polarization, dose response (AID 1960)
T3 sequence (Q9XUB2 whole entry): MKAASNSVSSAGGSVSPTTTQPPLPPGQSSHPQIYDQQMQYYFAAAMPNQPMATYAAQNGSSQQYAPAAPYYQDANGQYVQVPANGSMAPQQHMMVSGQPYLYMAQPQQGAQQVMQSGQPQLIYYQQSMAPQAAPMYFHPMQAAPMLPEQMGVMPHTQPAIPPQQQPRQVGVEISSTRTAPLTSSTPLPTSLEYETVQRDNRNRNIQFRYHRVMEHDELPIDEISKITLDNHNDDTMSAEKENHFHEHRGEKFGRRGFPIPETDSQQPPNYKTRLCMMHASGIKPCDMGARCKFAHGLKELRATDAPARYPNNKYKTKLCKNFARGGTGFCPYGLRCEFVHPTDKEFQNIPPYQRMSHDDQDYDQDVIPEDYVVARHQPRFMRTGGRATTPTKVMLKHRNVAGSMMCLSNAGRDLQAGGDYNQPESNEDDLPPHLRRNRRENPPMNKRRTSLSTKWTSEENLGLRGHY

[6] = target: T4, RNA-binding protein pos-1 (Caenorhabditis elegans, UniProt G5EF15); assay: disruptors of C. elegans POS-1 RNA interaction – biochemical, fluorescence polarization, dose response (AID 1964);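 note: purified POS-1 fused to maltose binding protein made in E. coli; potency of compounds blocking POS-1 binding to fluorescent RNA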
T4 sequence (G5EF15 whole entry): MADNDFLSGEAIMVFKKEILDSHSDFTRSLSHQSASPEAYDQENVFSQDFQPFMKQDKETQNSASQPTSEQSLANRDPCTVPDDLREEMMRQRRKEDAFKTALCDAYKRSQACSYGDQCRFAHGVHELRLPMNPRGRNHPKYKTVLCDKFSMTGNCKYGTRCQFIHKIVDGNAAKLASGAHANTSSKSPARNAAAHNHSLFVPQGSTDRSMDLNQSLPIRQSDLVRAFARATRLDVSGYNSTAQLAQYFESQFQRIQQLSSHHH

[7] = intracellular Trypanosoma cruzi inhibitors in host cells – cell-based, plate reader, cherry-pick samples, set 3, dose response (AID 651818); type: functional;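 note: compounds incubated with infected cells for about four days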
[8] = non-specific 3'UTR reporter inhibition in Clone20-Shn3RL – cell-based, Renilla luciferase, cherry-picked, counter-screen for Shn3 inhibitor project, dose response (AID 624133); type: functional
[9] = Trypanosoma cruzi growth suppression in host cells – NIH3T3 host cells, beta-gal luminescence, confirmation (AID 2044); type: functional, cell-based;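 note: intracellular parasites grown in NIH/3T3 mouse fibroblasts as host cells; luminescent beta-galactosidase reporter signal from transgenic T. cruzi replicating inside host cells; inhibitors lower the luminescence signal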
[10] = NIH3T3 cell viability loss – ATP luminescence, mouse fibroblasts, counter-screen, dose response (AID 2010); type: functional, cell-based;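 note: cells exposed to compound for about 90 hours before reading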
Cytochrome P450 3A4 = Cytochrome P450 3A4 (Homo sapiens, UniProt P08684);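 note: CYP3A4 tested as one member of a cytochrome P450 panel screen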
Cytochrome P450 2C9 = Cytochrome P450 2C9 (Homo sapiens, UniProt P11712)
[11] = target: T5, Rac GTPase-activating protein 1 (Homo sapiens, UniProt Q9H0H5); assay: blockers of MgcRacGAP-driven Rac1 GTP hydrolysis – biochemical, ADP Hunter fluorescence, primary and confirmatory, confirmation (AID 624330); type: functional
T5 sequence (Q9H0H5 whole entry): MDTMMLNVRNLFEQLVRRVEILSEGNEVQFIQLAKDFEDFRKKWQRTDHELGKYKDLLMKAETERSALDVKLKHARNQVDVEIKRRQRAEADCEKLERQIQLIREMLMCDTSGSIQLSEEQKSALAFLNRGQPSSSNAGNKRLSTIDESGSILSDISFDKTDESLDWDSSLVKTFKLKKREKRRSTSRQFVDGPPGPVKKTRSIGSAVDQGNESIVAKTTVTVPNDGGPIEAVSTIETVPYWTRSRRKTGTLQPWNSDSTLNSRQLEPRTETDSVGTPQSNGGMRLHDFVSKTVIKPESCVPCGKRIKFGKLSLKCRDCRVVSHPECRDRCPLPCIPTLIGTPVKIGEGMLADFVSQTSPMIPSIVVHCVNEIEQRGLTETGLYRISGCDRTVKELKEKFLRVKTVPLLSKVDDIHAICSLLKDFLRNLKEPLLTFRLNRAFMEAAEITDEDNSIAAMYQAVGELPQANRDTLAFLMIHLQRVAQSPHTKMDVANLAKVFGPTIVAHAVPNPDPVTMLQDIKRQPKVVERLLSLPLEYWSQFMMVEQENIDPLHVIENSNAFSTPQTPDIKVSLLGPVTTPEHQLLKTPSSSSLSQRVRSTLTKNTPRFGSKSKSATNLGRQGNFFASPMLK

[12] = system: Streptococcus sp. 'group A'; assay: Streptococcus pyogenes SK(-)GAS viability under kanamycin – luminescence, BacTiterGlo, confirmation, counter-screen for streptokinase expression inhibitor project, dose response (AID 1900); type: functional, organism-based
Streptokinase A = target: T6, Streptokinase A (Streptococcus pyogenes serotype M1, UniProt P10520); assay: viability-normalized secreted streptokinase activity reduction – plasminogen activation absorbance, OD405, dose response (AID 1914); type: functional, Streptococcus pyogenes M1 GAS;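 note: secreted streptokinase activity via plasminogen activation per viability signal from cell pellet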
T6 sequence (P10520 whole entry): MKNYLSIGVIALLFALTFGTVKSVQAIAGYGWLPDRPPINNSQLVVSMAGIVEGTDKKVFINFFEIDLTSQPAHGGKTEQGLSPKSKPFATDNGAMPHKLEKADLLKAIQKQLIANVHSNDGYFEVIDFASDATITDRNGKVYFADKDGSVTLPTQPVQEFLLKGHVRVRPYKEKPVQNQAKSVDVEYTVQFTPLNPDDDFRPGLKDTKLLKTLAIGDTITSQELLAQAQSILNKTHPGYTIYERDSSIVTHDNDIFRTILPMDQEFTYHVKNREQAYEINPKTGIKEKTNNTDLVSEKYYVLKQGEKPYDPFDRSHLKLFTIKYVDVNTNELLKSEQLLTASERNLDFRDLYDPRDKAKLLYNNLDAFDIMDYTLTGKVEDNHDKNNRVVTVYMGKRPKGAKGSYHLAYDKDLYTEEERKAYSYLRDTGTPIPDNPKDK

[13] = DRD fibroblast viability loss – cell-based, non-viral oncogenic, luminescence, dose response (AID 1934); type: functional; conditions: Homo sapiens
Streptococcus = assay: GAS UMAA2166 growth inhibition – luminescence, BacTiterGlo, counter-screen for streptokinase expression inhibitor project, dose response (AID 1915); type: functional, organism-based;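 note: potency for reduction of bacterial viability or growth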
BJ [14] = assay: cells; type: functional, cell-based; conditions: Homo sapiens
BJ [15] = assay: BJ-TERT-LT-ST fibroblast viability loss – cell-based, RAS-independent, luminescence, dose response (AID 1935); type: functional; conditions: Homo sapiens;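 note: BJ fibroblasts immortalized with TERT plus LT and ST oncogenes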
BJ [16] = assay: BJ-TERT fibroblast viability loss – cell-based, RAS-independent, luminescence, dose response (AID 1933); type: functional; conditions: Homo sapiens

T2 sequence (P11940 whole entry, the tested form may be a part): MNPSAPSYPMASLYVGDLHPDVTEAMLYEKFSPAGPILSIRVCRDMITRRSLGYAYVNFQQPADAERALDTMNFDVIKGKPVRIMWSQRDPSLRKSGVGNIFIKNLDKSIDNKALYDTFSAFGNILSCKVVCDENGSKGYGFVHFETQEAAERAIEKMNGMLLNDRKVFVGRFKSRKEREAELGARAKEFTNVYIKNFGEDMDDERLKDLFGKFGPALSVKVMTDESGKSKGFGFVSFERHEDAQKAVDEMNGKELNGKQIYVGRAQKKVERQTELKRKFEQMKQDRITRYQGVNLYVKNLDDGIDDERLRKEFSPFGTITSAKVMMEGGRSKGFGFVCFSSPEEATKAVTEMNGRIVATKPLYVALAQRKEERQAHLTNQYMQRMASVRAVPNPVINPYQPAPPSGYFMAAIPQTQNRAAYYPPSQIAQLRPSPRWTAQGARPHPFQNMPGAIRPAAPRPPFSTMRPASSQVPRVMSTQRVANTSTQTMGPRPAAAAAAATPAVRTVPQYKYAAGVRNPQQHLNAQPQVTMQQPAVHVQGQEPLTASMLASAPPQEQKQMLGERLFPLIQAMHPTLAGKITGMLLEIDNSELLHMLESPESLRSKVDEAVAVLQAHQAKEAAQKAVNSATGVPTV
Chain of FAD-linked sulfhydryl oxidase ALR (P55789 whole entry): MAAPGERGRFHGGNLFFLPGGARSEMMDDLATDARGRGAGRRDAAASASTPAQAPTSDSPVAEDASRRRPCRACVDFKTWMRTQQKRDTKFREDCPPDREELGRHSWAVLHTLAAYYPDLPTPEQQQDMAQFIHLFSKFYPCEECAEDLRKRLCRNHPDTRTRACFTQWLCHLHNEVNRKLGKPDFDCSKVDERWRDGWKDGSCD
Chain of Cytochrome P450 2C9 (P11712 whole entry): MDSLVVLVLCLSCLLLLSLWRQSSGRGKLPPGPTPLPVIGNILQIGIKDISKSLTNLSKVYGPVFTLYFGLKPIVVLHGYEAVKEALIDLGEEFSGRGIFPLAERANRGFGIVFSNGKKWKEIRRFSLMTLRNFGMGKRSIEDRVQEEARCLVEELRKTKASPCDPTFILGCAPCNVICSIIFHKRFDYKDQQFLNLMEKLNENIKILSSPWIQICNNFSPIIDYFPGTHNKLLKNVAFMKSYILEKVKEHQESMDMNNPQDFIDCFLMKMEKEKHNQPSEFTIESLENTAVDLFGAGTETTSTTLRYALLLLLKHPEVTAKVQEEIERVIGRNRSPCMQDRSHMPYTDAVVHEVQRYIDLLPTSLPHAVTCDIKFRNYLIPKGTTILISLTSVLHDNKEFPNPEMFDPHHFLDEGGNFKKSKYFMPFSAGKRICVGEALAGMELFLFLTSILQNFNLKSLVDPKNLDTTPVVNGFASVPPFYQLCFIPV
Chain of Cytochrome P450 3A4 (P08684 whole entry): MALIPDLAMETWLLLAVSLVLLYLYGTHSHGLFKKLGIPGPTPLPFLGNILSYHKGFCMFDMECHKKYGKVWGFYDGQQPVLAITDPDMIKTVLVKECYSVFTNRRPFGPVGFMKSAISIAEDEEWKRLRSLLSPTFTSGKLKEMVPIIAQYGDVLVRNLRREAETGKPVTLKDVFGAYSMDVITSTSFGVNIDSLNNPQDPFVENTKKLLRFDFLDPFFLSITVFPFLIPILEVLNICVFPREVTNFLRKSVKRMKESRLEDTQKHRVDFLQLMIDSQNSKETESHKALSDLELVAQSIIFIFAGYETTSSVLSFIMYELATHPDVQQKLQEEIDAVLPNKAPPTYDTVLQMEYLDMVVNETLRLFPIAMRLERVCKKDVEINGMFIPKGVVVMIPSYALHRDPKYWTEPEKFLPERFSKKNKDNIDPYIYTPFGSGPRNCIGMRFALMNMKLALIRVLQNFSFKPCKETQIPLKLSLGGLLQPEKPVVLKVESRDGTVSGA

## NC(=O)c1nsc(C(=O)N(Cc2ccco2)C(C(=O)NCC2CCCO2)c2ccc(F)cc2)c1N (stereo unspecified)
[1]
  EC50: 10.6 µM (active)

## Cn1cccc1/C=N/n1c(S)nnc1-c1ccc(Cl)cc1Cl
[2]
  AC50: 1.07 µM (active)

## O=C(NN=Cc1sc(=O)[n-]c1-[n+]1ccc(-c2ccncc2)cc1)c1ccccc1O
[3]
  IC50: 33.3 µM (inactive)
[4]
  IC50: 42.7 µM (inactive)
[5]
  EC50: 10.7 µM (active)
[6]
  EC50: 11.9 µM (active)

## C[C@@H]1CN([C@@H](C)CO)C(=O)Cc2cc(NC(=O)Nc3cccc4ccccc34)ccc2O[C@@H]1CN(C)Cc1ccc(-c2ccccc2)cc1
[7]
  AC50: 3.22 µM (active)

## O=C(C1CCCC1)N1CCN=C1SCc1cccc([N+](=O)[O-])c1
[2]
  AC50: 0.032 µM (active)

## Nc1cc(O)nc(SCC(=O)Nc2cccc([N+](=O)[O-])c2)n1
[8]
  AC50: 27.7 µM (active)

## Cc1cc(C(=O)NNc2ccccc2F)no1
[2]
  AC50: 5.7 µM (active)
[9]
  EC50: 2.26 µM (active)
[10]
  EC50: 5.14 µM (active)

## CSCC[C@H](NC(=O)N1CCn2c1nc1ccccc12)C(=O)N1CCCCC1
[2]
  AC50: 4.31 µM (active)

## C[C@H](CO)N1C[C@H](C)[C@H](CN(C)Cc2ccc(C(F)(F)F)cc2)Oc2c(NC(=O)Nc3ccc(C(F)(F)F)cc3)cccc2C1=O
[7]
  AC50: 4.77 µM (active)

## O=C(NC(=S)Nc1ccc(C(=O)N2CCOCC2)cc1)c1ccc([N+](=O)[O-])cc1
[3]
  IC50: > 66 µM (inactive)
[4]
  IC50: > 66 µM (inactive)
Cytochrome P450 3A4
  AC50: 1.41 µM (inconclusive)
Cytochrome P450 2C9
  AC50: 0.891 µM (inconclusive)

## C[C@H](CO)N1C[C@H](C)[C@@H](CN(C)Cc2ccc(C(=O)Nc3ccccc3N)cc2)Oc2c(NC(=O)C3CC3)cccc2C1=O
[7]
  AC50: 1.13 µM (active)

## CCC1(C(=O)c2ccccc2)C(c2ccc([N+](=O)[O-])cc2)C1(C(=O)OC)C(=O)OC (stereo unspecified)
[1]
  EC50: 4.22 µM (active)

## Cc1nn(C(=O)c2cccc([N+](=O)[O-])c2)c(C)c1Sc1ccccc1
[1]
  EC50: 2.66 µM (active)

## Nc1ccc(N2CCN(c3ccccc3)CC2)c(F)c1
[2]
  AC50: 13.2 µM (active)
[11]
  IC50: 46.6 µM (active)

## COc1ccc(CN(C)C[C@H]2Oc3ccc(NC(=O)C4CCCCC4)cc3CC(=O)N([C@@H](C)CO)C[C@@H]2C)cc1
[7]
  AC50: 1.2 µM (active)

## CC1CN(C2CCCCC2)c2nc3c(c(=O)[nH]c(=O)n3C)n2C1 (stereo unspecified)
[2]
  AC50: 1.81 µM (active)

## CC(C)CCN1CCN(Cc2ccsc2)CC1CCO (stereo unspecified)
[1]
  EC50: 4.22 µM (active)

## C[C@H]1CN([C@@H](C)CO)C(=O)Cc2cc(NS(=O)(=O)c3ccc(F)cc3)ccc2O[C@H]1CN(C)Cc1ccc(C(=O)Nc2ccccc2N)cc1
[7]
  AC50: 2.64 µM (active)

## COc1ccc(S(=O)(=O)Nc2cccc3c2O[C@@H](CN(C)Cc2ccc(C(=O)Nc4ccccc4N)cc2)[C@@H](C)CN([C@H](C)CO)C3=O)cc1
[7]
  AC50: 4.14 µM (active)

## COC(=O)c1c(NC(=O)COc2ccc(Cl)cc2)sc2c1CC(C)(C)NC2(C)C
[9]
  EC50: 1.54 µM (active)
[10]
  EC50: 10.4 µM (active)
[12]
  EC50: 11.6 µM (active)
Streptokinase A
  EC50: 23.7 µM (active)
[13]
  EC50: 5.85 µM (active)
Streptococcus
  EC50: > 150 µM (not active)
BJ [14]
  EC50: 11.7 µM (active)
BJ [15]
  EC50: 5.75 µM (inconclusive)
BJ [16]
  EC50: 4.44 µM (active)

## C[C@@H]1CN([C@@H](C)CO)C(=O)Cc2cc(NC(=O)Nc3ccc4c(c3)OCO4)ccc2O[C@@H]1CN(C)Cc1ccc(Oc2ccccc2)cc1
[7]
  AC50: 2.77 µM (active)

## C[C@H]1CN([C@@H](C)CO)C(=O)c2cc(NC(=O)Cc3cn(C)c4ccccc34)ccc2O[C@H]1CN(C)S(=O)(=O)c1ccc(Cl)cc1
[7]
  AC50: 2.81 µM (active)

## c1ccc2[nH]c(SCc3cn4cccnc4n3)nc2c1
[2]
  AC50: 0.194 µM (active)

## C/C(=N\NC(=O)CN1CCN(S(=O)(=O)c2ccc(C)cc2)CC1)c1ccc(O)cc1
[2]
  AC50: 2.92 µM (active)
